One test relates to Seeds of O. cumana. Description: Germination triggering of parasitic weed seeds. The following applies: AB01 compared with 5-deoxystrigol; 48 hours post-treatment, triplicate. It counts as in vivo. As for the experimental part:
Seeds of O. cumana were primed by incubation on glass fiber filters in darkness at room temperature for 3 days. Specified concentrations of AB01 or 5-dS were applied and seeds were monitored at 48 hours post-treatment. Germination was evident by appearance of haustoria. Experiments were performed in triplicate.

Test [1] relates to Alfalfa seedlings. Briefly: Drought tolerance in alfalfa seedlings. The following applies: 1 mg/mL; irrigation stopped; approximately 7 days post-treatment. The format is in vivo. As for the experimental part: Alfalfa was grown from seeds for 14 days. Seedlings were treated with 1 mg/mL AB01 or mock treated. Irrigation was stopped after treatment and seedlings were monitored for symptoms of water limitation stress.

In test [2] the test system is Dekalb 67-86 RR corn seedlings. Briefly: Acute water stress in corn seedlings (leaf rolling score). The following applies: 40 mL of 0.1 mM or 1.0 mM; 6th day without irrigation; greenhouse. It counts as in vivo. As for the experimental part: Corn seedlings were scored as unstressed, moderately water stressed and severely water stressed as measured by visual inspection of leaf rolling, a response of corn to water stress. Dekalb 67-86 RR corn seeds were planted and then irrigated through 7 days after emergence in a greenhouse setting. Seedlings were then treated with 40 mL of water, 0.1 mM AB01 or 1.0 mM AB01 and irrigation ceased. On the 6th day without irrigation, seedlings were scored for water stress. Seedlings with open leaves were scored as unstressed; seedlings with partial leaf rolling were scored as moderately stressed; seedlings with completely rolled leaves were scored as severely stressed.

For test [3], the system named is grain crop in Striga infested plots. Briefly: Field trial Siaya County, Kenya: grain yield. It counts as in vivo. To be noted: 1 gram per acre sprayed 1 week prior to planting. As for the experimental part:
We have field trials underway outside of Kisumu, Kenya to test the efficacy of this treatment on maize yields in Striga infested fields.
(§1) Field trial was performed from August 2013 to January 2014 in Siaya County, Kenya. AB01 treated plots were sprayed with a 1 gram per acre dose 1 week prior to planting. Treatment was accomplished by resuspending solid AB01 in 1 mL of acetone, and diluting in 4000 L of water. 3 replicate treated and untreated plots (100 m2 each) were performed. […] (C) The biomass of Striga from each plot was collected and measured after harvest.

In another test the test system is Striga. Briefly: Field trial Siaya County, Kenya: reduction of Striga. The format is in vivo. To be noted: 1 gram per acre sprayed 1 week prior to planting. As for the experimental part:
as §1

For test [4], the system named is corn, Dekalb hybrid 68-05. Briefly: Corn field trial, Hays County, Tex., not irrigated. It counts as in vivo. As for the experimental part:
Field trial was performed from April to July 2014 in Hays County, Tex. Dekalb hybrid 68-05 was planted at a density of 25,000 plants per acre (30″ rows with 8″ spacing). The field was top-dressed with 80 lbs/ac nitrogen. The field was not irrigated. AB01 treated plots were sprayed with a 2 gram per acre dose at the tasseling (VT) stage. Spraying was accomplished by resuspending solid AB01 in 0.5 mL of acetone, and diluting in water for a spray volume of 1 gallon per 500 square feet. Experiments were performed in triplicate The fraction of fertilized ears was measured by visual inspection of the ear silk at the R2-R3 stage. Unfertilized silks that appear yellow/green, while fertilized silks appear reddish brown. Completely unfertilized ears have silks that are completely yellow/green, fertilized ears appear brown, while ears with an incomplete degree of fertilized silks have a mixed population of silks. […] Ears were visually inspected at harvest to monitor kernel set (the number of fully formed kernels in the mature ear). […] Ears volume was measured in the field at the R3 stage to calculate ear volume. The length and circumference of each ear was measure, and volume was calculated by treating the ear as a cylinder. Approximately 100 ears from each plot were measured. […] After harvest, ears were shelled and kernels counted and weighed to quantitate the ‘thousand kernel weight’ (TKW), or average mass of kernels in the trial. AB01 treated plots yielded kernels averaging 30% higher mass than control plots. Ears from control and treated plots were harvested, shelled, and moisture tested to quantitate dry mass. Control plots averaged 120 bushels per acre, while AB01 treated plots averaged 143 bushels per acre, a 19% increase. Grain yield is calculated at 15% moisture, a standard measure of harvest output.

For another test, the system named is Seeds of Striga asiatica. Briefly: Triggering Striga seed germination. It counts as in vivo. To be noted: for bioactivity in Striga germination assay: FIG. 1. As for the experimental part: (B) Bioactivity of synthetic SL. Seeds of Striga asiatica were exposed to SL (right) or a mock treatment (left). […] (C) Synthetic biological pathway for the production of SL in yeast, consisting of enzymes of plant and microbial origin. We tested the ability of AB01 to trigger the germination of Striga seeds. Seeds of Striga asiatica were conditioned by incubation in the dark at 30 degrees for 7 days, and dilutions of the AB01 material in water were applied. We observed that concentrations of 1 nanogram per liter and greater were able to trigger germination of approximately 30% of the seeds, which is similar to published efficiencies and activity for plant-derived strigolactone (FIG. 1A-B).

The next test relates to Tomato seedlings. Description: Salinity tolerance in tomato seedlings. The format is in vivo. The following applies: 10 mg/mL; 250 mL water with 29.2 g/L NaCl 24 hours after treatment; 6 hours after salt irrigation. As for the experimental part:
Tomato seedlings were treated with 10 mg/mL AB01 or mock treated. 24 hours after treatment, they were irrigated with 250 mL water containing 29.2 g/L salt (NaCl).

The next test relates to Wheat. Briefly: Drought tolerance in greenhouse wheat. It counts as in vivo. The following applies: 1 mg in 100 mL water; irrigation stopped; 7 days post treatment. As for the experimental part: Wheat was grown in greenhouse conditions from seed for 6 weeks with adequate irrigation. Plants were treated with 1 mg of AB01 resuspended in acetone and diluted in 100 mL water, or mock treated as a control. Irrigation was stopped and plants monitored for symptoms of drought stress.

In test [5] the test system is Alfalfa seedlings. Description: Salinity tolerance in alfalfa seedlings. The format is in vivo. The following applies: 1 mg/mL; irrigated every 48 hours with 100 mL water containing 35 g/L NaCl; after 5 days. As for the experimental part: Alfalfa was grown from seeds for 14 days. Seedlings were treated with 1 mg/mL AB01 or mock treated. After treatment, plants were irrigated with 100 mL water containing 35 g/L dissolved salt (NaCl). Irrigation was performed every 48 hours and plants monitored for symptoms of salinity stress.

The subject of another test is MAX1 A. thaliana mutants. Description: Complementation of Arabidopsis mutant deficient in strigolactone biosynthesis. It counts as in vivo, Arabidopsis thaliana. The following applies: 1 uM as an irrigation supplement vs mock treatment. As for the experimental part:
To further validate the bioactivity of AB01 we tested whether the compound could complement mutants of the model plant Arabidopsis thaliana that are deficient in strigolactone biosynthesis. […] We grew MAX1 A. thaliana under standard conditions and added 1 uM AB01 as an irrigation supplement, or a mock treatment. […] Thus, the synthetic AB01 is sufficiently similar to strigolactone to both to trigger Striga germination as well as substitute for the natural compound in a model plant.

Another test concerns Striga hermonthica seeds. The following applies: at 10^-8 M concentrations; cited from earlier work.

Bounds are passed on as bounds.

In the case of `CC1=C[C@H](O/C=C2/C(=O)O[C@@H]3C4=C(CCCC4(C)C)C[C@H]23)OC1=O` [Formula 5-dS, 5-deoxystrigol, reference compound], in the test with Seeds of O. cumana, the “germination triggering efficiency (appearance of haustoria)” value is on record as “Significant differences in germination triggering efficiency”.
For `CC1=CC(O/C=C2\C(=O)O[C@]3(C)CCC4C(C)(C)CCC[C@]4(C)[C@@H]23)OC1=O` (stereo partly shown) [AB01], the “appearance of seedlings under water limitation” value with Alfalfa seedlings [1] is on record as “appeared robust”. Besides, in test [2], the “fraction of unstressed / severely water stressed seedlings” value is on record as “decreased the fraction of severely stressed seedlings while increasing the fraction of unstressed seedlings in a dose-dependent manner”. Besides, the “increase of grain yield compared to untreated plots” value in test [3] turned out to be 25%. The “count of emergent Striga per plot” value in the test with Striga was “few parasites”. In addition, in the test with Striga (3 replicate plots of 100 m2), the “Striga emergence and Striga-related stress during season” value was “few signs of Striga-related stress and parasite emergence”. Besides, the “increase of harvest yield over control plots” value in test [4] (2 gram per acre spray at VT) came to 19%. Moreover, in test [4] (2 gram per acre spray at VT, R3 stage, approximately 100 ears per plot, vs mock treated), the ear volume entry is “significantly higher volumes”. In addition, in test [4] (2 gram per acre spray at VT, vs mock treated), the “kernel set at harvest” value is “more complete kernel set and few signs of kernel abortion”. Besides, the “fraction of fertilized ears (visual inspection of ear silk)” value in test [4] (2 gram per acre spray at tasseling (VT), R2-R3 stage, vs mock treated control) is given as “decreased the fraction of unfertilized ears while increasing the fraction of fertilized ears”. Also, the “bioactivity in Striga germination assay” value with Seeds of Striga asiatica is given as “graded dose-response behavior”; in the test on Seeds of Striga asiatica (listed as Synthetic SL), “potent bioactivity”; in the test with Seeds of Striga asiatica (listed as synthetic SL) it was “displayed bioactivity”; in the test on Seeds of Striga asiatica (listed as synthetically produced SL), “effective at germinating seeds of Striga asiatica”. In addition, in the test with Seeds of Striga asiatica (Striga asiatica seeds conditioned 7 days, dilutions in water), the “concentrations able to trigger germination” value was at least 1 nanogram per liter. Moreover, the “seeds triggered to germinate” value in the test on Seeds of Striga asiatica (Striga asiatica seeds conditioned in the dark at 30 degrees for 7 days, dilutions in water, 1 nanogram per liter and greater) is given as “approximately 30%”. For the same compound, the “germination triggering efficiency (appearance of haustoria)” value in the test with Seeds of O. cumana is recorded as “Significant differences in germination triggering efficiency”. Besides, in the test on Tomato seedlings, the “symptoms of salinity shock (wilting)” value is listed as “appeared unstressed”. Moreover, in the test with Wheat, the “symptoms of drought stress (wilting)” value is “appeared vigorous”. In the test with Alfalfa seedlings [5], the “vigor under salinity stress” value is listed as “significantly higher vigor”. Moreover, in the test with MAX1 A. thaliana mutants, the “effect on phenotype of strigolactone-deficient mutant” value is on record as “visible impact on the phenotype of the mutant”.
Regarding `CC1=CC(OC=C2C(=O)OC3C4=C(CC23)C(O)CCC4(C)C)OC1=O` (stereo not drawn) [ent-strigol], the “activity in germination studies of Striga hermonthica seeds” value with Striga hermonthica seeds is listed as 22%.
